Reference: US20080227655A1, “Assessment of effect of an agent on a human biological condition using rodent gene expression panels” (priority 2006, published 2008)
“And” between values parts separate entries of the source, which are not always exact repeats. Equal entries are not always repeated.

Test system: custom murine 40-gene Precision Profile for Rheumatoid Arthritis, whole blood
Assay: KRN (K/BxN) serum transfer induced arthritis model, whole blood gene expression by QPCR, vehicle or dexamethasone treatment
Format: in vivo, female BALB/c mice
Conditions: for ABCA1_M Normalized CT Value (Delta CT) / APAF1_M Normalized CT Value (Delta CT) / ARG2_M Normalized CT Value (Delta CT) / CASP1_M Normalized CT Value (Delta CT) / CASP3_M Normalized CT Value (Delta CT) / CCR3_M Normalized CT Value (Delta CT) / CD3Z_M Normalized CT Value (Delta CT) / CD8A_M Normalized CT Value (Delta CT) / CD14_M Normalized CT Value (Delta CT) / CD19_M Normalized CT Value (Delta CT) / CD86_M Normalized CT Value (Delta CT) / CSPG2_M Normalized CT Value (Delta CT) / F3_M Normalized CT Value (Delta CT) / HMOX1_M Normalized CT Value (Delta CT) / HSPA1A—M Normalized CT Value (Delta CT) / ICAM1—M Normalized CT Value (Delta CT) / IFI16—M Normalized CT Value (Delta CT) / IL1B_M Normalized CT Value (Delta CT) / IL10_M Normalized CT Value (Delta CT): whole blood
Experimental: Whole blood gene expression changes were evaluated in vehicle control and drug-treated murine subjects across two murine models of arthritis according to the following arthritis models:
KRN Transgenic Mouse (K/B×N): K/B×N serum from transgenic mouse used to induce arthritis in female BALB/c mice (n=54). Collagen Induced Arthritis (CIA): Bovine type II collagen used to induce arthritis in male DBA/1 mice (n=54).
In addition, naïve, untreated animal groups at baseline and terminal day were included to control for potential age-related changes in gene expression over the extended study periods. Animal groups, time-points, and treatment schedules are summarized in Tables 20A and 20B, respectively.
Whole blood samples from animals were collected by retro-orbital bleed at selected time-points in accordance with the arthritis study schemas described in […], and transferred into sample collection tubes containing a 1.5× lysis solution and RPMI. Samples were processed into total RNA and cDNA. […] It was anticipated from these murine models would provide a better understanding of the relevant molecular response of arthritis induction and their potential correlation to the human disease condition.
Normal murine subject reference values (represented as normalized Ct or ΔCt values) were established for male DBA/1 mice (n=6 for the CIA study arm) and female BALB/c mice (n=6 for the KRN study arm). In both arms of the study, gene expression response of normal (naïve, non-immunized and untreated) murine subjects were evaluated in groups of 6 each at day 0 and day 60 for the CIA study arm, and at day 0 and day 21 for the KRN study arm (see Tables 20A and 20B).
Gene expression responses for the arthritis-induced murine model were evaluated for untreated mice at day 3 and vehicle-treated mice at days 7, 14 and 21 to characterize disease progression.

[1] = KRN Day 14, Dex-treated, individual murine subject
[2] = KRN Day 14, Dex-treated, individual murine subject, listed as Dex
[3] = KRN Day 14 Dex, individual mouse, listed as Dex
[4] = KRN Day 21, Dex-treated, group Average
[5] = KRN Day 21, Dex-treated, individual murine subject, listed as Dex
[6] = KRN Day 21 Dex, individual mouse, listed as Dex

C[C@@H]1C[C@H]2[C@@H]3CCC4=CC(=O)C=C[C@]4(C)[C@@]3(F)[C@@H](O)C[C@]2(C)[C@@]1(O)C(=O)CO [Dexamethasone]
Normalized CT Value (Delta CT) TLR4_M [1]: 18.49 | Normalized CT Value (Delta CT) TNFSF5—M [1]: 19.61 | Normalized CT Value (Delta CT) TNF_M [1]: 20.58 | Normalized CT Value (Delta CT) VEGF_M [1]: 20.76 | Normalized CT Value (Delta CT) IL1RAP_M [2]: 18.49 and 19.00 and 18.48 and 18.13 and 18.59 and 18.81 | Normalized CT Value (Delta CT) IL1RN—M [2]: 17.70 and 17.88 and 17.80 and 17.59 and 17.72 and 17.52 | Normalized CT Value (Delta CT) IL6_M [2]: 25.39 and 25.69 and 25.54 and 25.34 and 25.89 and 25.05 | Normalized CT Value (Delta CT) JUN_M [2]: 19.76 and 19.88 and 19.77 and 19.35 and 19.58 and 19.68 | Normalized CT Value (Delta CT) MEF2C—M [2]: 20.59 and 19.97 and 20.74 and 19.83 and 20.88 and 19.95 | Normalized CT Value (Delta CT) MMP9—M [2]: 14.51 and 14.33 and 14.28 and 14.07 and 14.70 and 14.83 | Normalized CT Value (Delta CT) NFKB1—M [2]: 17.37 (2×) and 17.12 and 17.30 and 16.77 and 17.79 | Normalized CT Value (Delta CT) PADI4—M [2]: 18.74 and 18.78 and 18.81 and 18.39 and 18.98 and 19.03 | Normalized CT Value (Delta CT) PLA2G7—M [2]: 15.31 and 15.29 and 15.04 and 14.93 and 15.33 and 15.36 | ABCA1_M Normalized CT Value (Delta CT) (KRN Day 14 Dex, group Average): 18.74 | APAF1_M Normalized CT Value (Delta CT) (KRN Day 14 Dex, group Average): 19.47 | ARG2_M Normalized CT Value (Delta CT) (KRN Day 14 Dex, group Average): 17.37 | CASP1_M Normalized CT Value (Delta CT) (KRN Day 14 Dex, group Average): 19.02 | CASP3_M Normalized CT Value (Delta CT) (KRN Day 14 Dex, group Average): 17.77 | CCR3_M Normalized CT Value (Delta CT) (KRN Day 14 Dex, group Average): 19.21 | CD3Z_M Normalized CT Value (Delta CT) (KRN Day 14 Dex, group Average): 17.27 | CD8A_M Normalized CT Value (Delta CT) (KRN Day 14 Dex, group Average): 18.32 | CD14_M Normalized CT Value (Delta CT) (KRN Day 14 Dex, group Average): 19.94 | CD19_M Normalized CT Value (Delta CT) (KRN Day 14 Dex, group Average): 17.52 | CD86_M Normalized CT Value (Delta CT) (KRN Day 14 Dex, group Average): 23.30 | CSPG2_M Normalized CT Value (Delta CT) (KRN Day 14 Dex, group Average): 20.94 | F3_M Normalized CT Value (Delta CT) (KRN Day 14 Dex, group Average): 23.16 | HMOX1_M Normalized CT Value (Delta CT) (KRN Day 14 Dex, group Average): 18.18 | HSPA1A—M Normalized CT Value (Delta CT) (KRN Day 14 Dex, group Average): 21.59 | ICAM1—M Normalized CT Value (Delta CT) (KRN Day 14 Dex, group Average): 19.42 | IFI16—M Normalized CT Value (Delta CT) (KRN Day 14 Dex, group Average): 17.45 | IL1B_M Normalized CT Value (Delta CT) (KRN Day 14 Dex, group Average): 14.29 | IL10_M Normalized CT Value (Delta CT) (KRN Day 14 Dex, group Average): 25.56 | ABCA1_M Normalized CT Value (Delta CT) [3]: 18.85 and 18.64 and 18.31 and 18.46 and 19.46 and 18.75 | APAF1_M Normalized CT Value (Delta CT) [3]: 19.78 and 19.62 and 19.16 and 19.37 and 19.43 | ARG2_M Normalized CT Value (Delta CT) [3]: 17.30 and 17.84 and 17.05 and 16.89 and 17.70 and 17.43 | CASP1_M Normalized CT Value (Delta CT) [3]: 19.00 and 18.87 and 18.99 and 19.15 and 19.23 and 18.90 | CASP3_M Normalized CT Value (Delta CT) [3]: 17.98 and 17.63 and 17.87 and 17.16 and 17.93 and 18.06 | CCR3_M Normalized CT Value (Delta CT) [3]: 19.56 and 18.34 and 19.23 and 18.45 and 19.90 and 19.79 | CD3Z_M Normalized CT Value (Delta CT) [3]: 17.27 and 17.38 and 17.23 and 16.92 and 18.16 and 16.68 | CD8A_M Normalized CT Value (Delta CT) [3]: 18.76 and 18.05 and 18.11 and 17.83 and 19.21 and 17.94 | CD14_M Normalized CT Value (Delta CT) [3]: 19.50 and 20.04 and 19.93 and 20.22 and 19.63 and 20.29 | CD19_M Normalized CT Value (Delta CT) [3]: 17.84 and 17.32 (2×) and 18.33 and 17.39 | CD86_M Normalized CT Value (Delta CT) [3]: 23.63 and 23.21 and 23.28 and 22.53 and 23.60 and 23.56 | CSPG2_M Normalized CT Value (Delta CT) [3]: 21.74 and 21.15 and 20.43 and 21.79 and 19.79 and 20.71 | F3_M Normalized CT Value (Delta CT) [3]: 22.18 and 23.66 and 21.85 and 24.55 and 21.66 and 25.05 | HMOX1_M Normalized CT Value (Delta CT) [3]: 17.83 and 18.22 and 17.82 and 18.09 and 18.31 and 18.81 | HSPA1A—M Normalized CT Value (Delta CT) [3]: 21.44 and 22.20 and 21.91 and 21.55 and 20.95 and 21.51 | ICAM1—M Normalized CT Value (Delta CT) [3]: 19.58 and 19.31 and 19.39 and 19.05 and 19.89 and 19.28 | IFI16—M Normalized CT Value (Delta CT) [3]: 17.64 and 17.26 and 17.87 and 16.81 and 18.04 and 17.08 | IL1B_M Normalized CT Value (Delta CT) [3]: 14.31 and 14.48 (2×) and 14.19 and 14.00 and 14.25 | IL10_M Normalized CT Value (Delta CT) [3]: 25.62 and 25.82 and 25.58 and 25.54 and 25.73 and 25.10 | Normalized CT Value (Delta CT) IL1RAP_M [4]: 19.02 | Normalized CT Value (Delta CT) IL1RN—M [4]: 18.13 | Normalized CT Value (Delta CT) IL6_M [4]: 25.28 | Normalized CT Value (Delta CT) JUN_M [4]: 20.06 | Normalized CT Value (Delta CT) MEF2C—M [4]: 20.90 | Normalized CT Value (Delta CT) MMP9—M [4]: 15.04 | Normalized CT Value (Delta CT) NFKB1—M [4]: 17.69 | Normalized CT Value (Delta CT) PADI4—M [4]: 18.92 | Normalized CT Value (Delta CT) PLA2G7—M [4]: 15.50 | Normalized CT Value (Delta CT) IL1RAP_M [5]: 19.08 and 19.03 and 18.86 and 19.29 and 18.97 and 18.89 | Normalized CT Value (Delta CT) IL1RN—M [5]: 17.95 (2×) and 18.43 and 17.84 and 18.46 and 18.15 | Normalized CT Value (Delta CT) IL6_M [5]: 25.40 and 25.42 and 24.75 and 25.06 and 25.35 and 25.72 | Normalized CT Value (Delta CT) JUN_M [5]: 20.06 and 20.45 and 20.53 and 19.72 and 19.52 | Normalized CT Value (Delta CT) MEF2C—M [5]: 21.26 (2×) and 20.26 and 21.57 and 20.41 and 20.64 | Normalized CT Value (Delta CT) MMP9—M [5]: 15.23 and 14.73 and 15.36 and 15.08 and 14.79 | Normalized CT Value (Delta CT) NFKB1—M [5]: 17.74 and 18.12 and 17.25 and 18.27 and 17.28 and 17.46 | Normalized CT Value (Delta CT) PADI4—M [5]: 19.00 and 18.36 and 19.37 and 18.97 and 19.13 and 18.69 | Normalized CT Value (Delta CT) PLA2G7—M [5]: 15.27 and 15.70 and 15.34 and 15.67 and 15.86 and 15.15 | ABCA1_M Normalized CT Value (Delta CT) (KRN Day 21 Dex, group Average): 19.00 | APAF1_M Normalized CT Value (Delta CT) (KRN Day 21 Dex, group Average): 19.85 | ARG2_M Normalized CT Value (Delta CT) (KRN Day 21 Dex, group Average): 17.59 | CASP1_M Normalized CT Value (Delta CT) (KRN Day 21 Dex, group Average): 19.48 | CASP3_M Normalized CT Value (Delta CT) (KRN Day 21 Dex, group Average): 18.35 | CCR3_M Normalized CT Value (Delta CT) (KRN Day 21 Dex, group Average): 19.66 | CD3Z_M Normalized CT Value (Delta CT) (KRN Day 21 Dex, group Average): 17.38 | CD14_M Normalized CT Value (Delta CT) (KRN Day 21 Dex, group Average): 20.44 | CD19_M Normalized CT Value (Delta CT) (KRN Day 21 Dex, group Average): 17.72 | CD86_M Normalized CT Value (Delta CT) (KRN Day 21 Dex, group Average): 23.73 | ABCA1_M Normalized CT Value (Delta CT) [6]: 19.52 and 19.29 and 18.57 and 19.09 and 18.61 and 18.92 | APAF1_M Normalized CT Value (Delta CT) [6]: 19.76 and 19.88 and 19.81 and 20.29 and 19.46 and 19.93 | ARG2_M Normalized CT Value (Delta CT) [6]: 17.45 and 17.78 and 17.56 and 17.29 and 18.09 and 17.36 | CASP1_M Normalized CT Value (Delta CT) [6]: 19.34 and 19.90 and 19.57 and 19.28 and 19.50 and 19.31 | CASP3_M Normalized CT Value (Delta CT) [6]: 18.21 and 18.52 (2×) and 18.24 and 18.02 and 18.60 | CCR3_M Normalized CT Value (Delta CT) [6]: 19.82 and 19.72 and 19.20 and 19.52 and 20.10 and 19.60 | CD3Z_M Normalized CT Value (Delta CT) [6]: 17.32 and 17.40 and 17.14 and 17.66 and 17.04 and 17.71 | CD14_M Normalized CT Value (Delta CT) [6]: 20.25 and 21.24 and 20.59 and 20.09 and 20.44 and 20.03 | CD19_M Normalized CT Value (Delta CT) [6]: 18.44 and 17.98 and 17.64 and 18.11 | CD86_M Normalized CT Value (Delta CT) [6]: 23.89 and 23.61 and 23.63 and 24.02 and 23.14 and 24.11
